The source of these data is patent publication US20210208149A1, “METHODS FOR CELL PROFILING” (priority 2018, published 2021).

Test [1] has as its system U87. Particulars: GBM cell line U87; adapted from reference [13]; cited from earlier work.
Test [2] deals with A172. As to conditions: GBM cell line A172; adapted from reference [13]; cited from earlier work.
In test [3] the test system is LN443. Particulars: GBM cell line LN443; adapted from reference [13]; cited from earlier work.
For test [4], the system named is U118. As to conditions: GBM cell line U118; adapted from reference [13]; cited from earlier work.
The test system of test [5] is HEK293S. In words: Cell proliferation assay (CCK8), fixed concentration, control cell line. It counts as cell-based. As to conditions: fixed test concentration per compound, Table 1 log[M]: Trequinsin −4.6, Fucoxanthin −4.8, PF04449613 −4, PF02545920 −4.6, TIC10 −5, PF04691502 −6.6, GSK1059615 −5.5, LY294002 −5, Axitinib −5, Temozolomide −5. The protocol:
(§1) A wide range of approved and exploratory drugs are profiled for their ability to inhibit GBM cell proliferation. Their EC50 values against each separate cell line in the set are determined. […] Screening is performed in 96-well or 384-well or 1536-well formats.
(§2) Data was obtained from testing these compounds at fixed concentrations against normal control cells (HEK293S) alongside reference GBM cells (U87 and A172), to obtain a dataset (Table 1) within which to compare the pharmacological and pharmaceutical properties of compounds across a chosen chemotyping panel.
(§3) Data Obtained from Screening Compounds within a Chemotyping Panel Against a Control Cell Line (HEK293S) and Two Reference GBM Cell Lines (U87 and A172)

Test [6] has as its system U87. The experiment in a line: Cell proliferation assay (CCK8), fixed concentration, reference GBM cell line U87. In kind it is cell-based, human. Particulars: fixed test concentration per compound, Table 1 log[M]: Trequinsin −4.6, Fucoxanthin −4.8, PF04449613 −4, PF02545920 −4.6, TIC10 −5, PF04691502 −6.6, GSK1059615 −5.5, LY294002 −5, Axitinib −5, Temozolomide −5. The protocol:
as §1, §2, §3

The subject of test [7] is A172. The experiment in a line: Cell proliferation assay (CCK8), fixed concentration, reference GBM cell line A172. As to conditions: fixed test concentration per compound, Table 1 log[M]: Trequinsin −4.6, Fucoxanthin −4.8, PF04449613 −4, PF02545920 −4.6, TIC10 −5, PF04691502 −6.6, GSK1059615 −5.5, LY294002 −5, Axitinib −5, Temozolomide −5. It counts as cell-based, human. The protocol: as §1, §2, §3

Counter-ions that a name gives are not always drawn.

For the compound `CCc1c2c(nc3ccc(OC(=O)N4CCC(N5CCCCC5)CC4)cc13)-c1cc3c(c(=O)n1C2)COC(=O)[C@]3(O)CC` [Irinitecan], the concentration giving a half-maximal response (EC50) (usually the concentration needed to bring the measured effect to its halfway point) in test [1] was 8030 nM; in test [2] it was 7970 nM; in test [3], 4010 nM; in test [4], 4600 nM.

Consider `COc1cc2c(cc1OC)-c1c/c(=N\c3c(C)cc(C)cc3C)n(C)c(=O)n1CC2` [Trequinsin], for which, in test [5], the “% Inhibiton HEK293” value came out at 59% and the “% Proliferation HEK293” value is 41%. In test [6], the “% Inhibiton U87” value was found to be 11% and the “% Proliferation U87” value came to 89%. For the same compound, in test [7], the “% Inhibiton A172” value came to 37% and the “% Proliferation A172” value is 63%.

As to `CC[C@]1(O)C[C@@H]2CN(CCc3c([nH]c4ccccc34)[C@@](C(=O)OC)(c3cc4c(cc3OC)N(C)[C@H]3[C@@](O)(C(N)=O)[C@H](O)[C@]5(CC)C=CCN6CC[C@]43[C@@H]65)C2)C1` [Vindesine sulfate], the EC50 was 414 nM in test [1], 23.2 nM in test [2], 495 nM in test [3] and 670 nM in test [4].

`COCc1c(C(C)C)nc(C(C)C)c(/C=C/[C@@H](O)C[C@@H](O)CC(=O)O)c1-c1ccc(F)cc1` [Cericastatin]: the 50% effective concentration (EC50) in test [1] was 668 nM; in test [2] it was 31.7 nM; in test [3] it was 24 nM; in test [4], 741 nM.

Consider Fucoxanthin, for which, in test [5], the “% Inhibiton HEK293” value is 76% and the “% Proliferation HEK293” value is 24%. Besides, in test [6], the “% Inhibiton U87” value was found to be 26% and the “% Proliferation U87” value is recorded as 74%. Also, in test [7], the “% Inhibiton A172” value stood at 66% and the “% Proliferation A172” value is given as 34%.

On to `Cc1ccccc1CN1C(=O)C2=C(CCN(Cc3ccccc3)C2)N2CCN=C12` [TIC10], for which, in test [5], the “% Inhibiton HEK293” value was 83% and the “% Proliferation HEK293” value was determined as 17%. Also, in test [6], the “% Inhibiton U87” value is 27% and the “% Proliferation U87” value was determined as 73%. Besides, in test [7], the “% Inhibiton A172” value stood at 68% and the “% Proliferation A172” value is listed as 32%.

Regarding `COc1cccc2c1C(=O)c1c(O)c3c(c(O)c1C2=O)C[C@@](O)(C(=O)CO)C[C@@H]3O[C@H]1C[C@H](N)[C@H](O)[C@H](C)O1` [Docorubicine], the EC50 was 55.1 nM in test [1], 48.8 nM in test [2], 62.9 nM in test [3] and 41.1 nM in test [4].

As for `CC(C)/N=c1\cc2n(-c3ccc(Cl)cc3)c3ccccc3nc-2cc1Nc1ccc(Cl)cc1` [Clofaximine], the EC50 in test [1] is 8610 nM; in test [2] it was 11900 nM; in test [3] it was 20100 nM; in test [4], 19700 nM.

In the case of `Nc1ncnc2c1ncn2[C@H]1C[C@H](O)[C@@H](CO)O1` [Deoxyadenosine], the concentration for a half-maximal effect (EC50) in test [1] was 2110 nM; in test [2], 1770 nM; in test [4], 590 nM.

For `Cn1nnc2c(C(N)=O)ncn2c1=O` [Temozolomide], in test [5], the “% Inhibiton HEK293” value was determined as 0% and the “% Proliferation HEK293” value was determined as 100%. Moreover, in test [6], the “% Inhibiton U87” value is 5% and the “% Proliferation U87” value is 95%. In test [7], the “% Inhibiton A172” value came to 13% and the “% Proliferation A172” value is on record as 87%.

For `COc1ccc(-c2cc3c(C)nc(N)nc3n([C@H]3CC[C@H](OCCO)CC3)c2=O)cn1` [PF04691502], in test [5], the “% Inhibiton HEK293” value came out at 45% and the “% Proliferation HEK293” value amounted to 55%. In test [6], the “% Inhibiton U87” value is given as 35% and the “% Proliferation U87” value is 65%. In test [7], the “% Inhibiton A172” value is reported as 44% and the “% Proliferation A172” value came out at 56%.

Regarding `C[C@H](c1nc2c(cnn2C2CCOCC2)c(=O)[nH]1)N1CC(Oc2ccccc2)C1` [PF04449613], in test [5], the “% Inhibiton HEK293” value came out at 10% and the “% Proliferation HEK293” value was 90%. In addition, in test [6], the “% Inhibiton U87” value is given as −14% and the “% Proliferation U87” value was determined as 114%. Further, in test [7], the “% Inhibiton A172” value is 61% and the “% Proliferation A172” value stood at 39%.

Consider `COC(=O)C[C@](O)(CCCC(C)(C)O)C(=O)O[C@@H]1C(OC)=C[C@]23CCCN2CCc2cc4c(cc2[C@H]13)OCO4` [Homoharringtonin], for which the EC50 in test [1] was 22 nM; in test [3], 28.9 nM; in test [4] it was 1140 nM.

In the case of `COc1cccc2c1C(=O)c1c(O)c3c(c(O)c1C2=O)C[C@@](O)(C(=O)CO)C[C@@H]3O[C@H]1C[C@H](N)[C@@H](O)[C@H](C)O1` [Epirubicin], the concentration giving a half-maximal response (EC50) in test [1] is 59.3 nM; in test [2], 62.2 nM; in test [3] it was 41.2 nM; in test [4] it was 46.9 nM.

Turning to `O=C(O)C[C@H](O)C[C@H](O)/C=C/c1c(C2CC2)nc2ccccc2c1-c1ccc(F)cc1` [Pitavastatin], the EC50 in test [1] is 3520 nM; in test [2], 274 nM; in test [3], 83 nM; in test [4], 1920 nM.

Consider Dactinmycin, for which the EC50 was 437 nM in test [1], 99.3 nM in test [2], 19.6 nM in test [3] and 56.8 nM in test [4].

Turning to `CC[C@@]1(O)C(=O)OCc2c1cc1n(c2=O)Cc2cc3c(CN(C)C)c(O)ccc3nc2-1` [Topetecan], the EC50 in test [1] is 167 nM; in test [2], 649 nM; in test [3] it was 136 nM; in test [4], 184 nM.

On to `O=C1NC(=O)/C(=C/c2ccc3nccc(-c4ccncc4)c3c2)S1` [GSK1059615], for which, in test [5], the “% Inhibiton HEK293” value amounted to 79% and the “% Proliferation HEK293” value amounted to 21%. For the same compound, in test [6], the “% Inhibiton U87” value is listed as 57% and the “% Proliferation U87” value worked out at 43%. In addition, in test [7], the “% Inhibiton A172” value worked out at 74% and the “% Proliferation A172” value stood at 26%.

Regarding `CC(C)[C@]12O[C@H]1[C@@H]1O[C@]13[C@]1(O[C@H]1C[C@H]1C4=C(CC[C@@]13C)C(=O)OC4)[C@@H]2O` [Triptolide], the EC50 is 6.53 nM in test [1], 8.33 nM in test [2], 30.8 nM in test [3] and 10.1 nM in test [4].

As for `Cn1cc(-c2ccncc2)c(-c2ccc(OCc3ccc4ccccc4n3)cc2)n1` [PF02545920], in test [5], the “% Inhibiton HEK293” value amounted to 84% and the “% Proliferation HEK293” value is recorded as 16%. For the same compound, in test [6], the “% Inhibiton U87” value was 30% and the “% Proliferation U87” value is 70%. Also, in test [7], the “% Inhibiton A172” value came to 80% and the “% Proliferation A172” value turned out to be 20%.

In the case of `CC[C@]1(O)C[C@H]2CN(CCc3c([nH]c4ccccc34)[C@@](C(=O)OC)(c3cc4c(cc3OC)N(C=O)[C@H]3[C@@](O)(C(=O)OC)[C@H](OC(C)=O)[C@]5(CC)C=CCN6CC[C@]43[C@@H]65)C2)C1` [Vincrinstine], the EC50 in test [1] is 1320 nM; in test [2] it was 42 nM; in test [3], 873 nM; in test [4] it was 1190 nM.

Turning to `O=c1cc(N2CCOCC2)oc2c(-c3ccccc3)cccc12` [LY294002], in test [5], the “% Inhibiton HEK293” value is 2% and the “% Proliferation HEK293” value worked out at 98%. In test [6], the “% Inhibiton U87” value was −17% and the “% Proliferation U87” value stood at 117%. In test [7], the “% Inhibiton A172” value stood at 42% and the “% Proliferation A172” value was determined as 58%.
